{"source": "ChEMBL document CHEMBL1201862", "about": "“PubChem BioAssay data set” (2004)", "assay_type_in_all_cases": "functional", "key": {"[1]": {"target": "Proto-oncogene tyrosine-protein kinase Src (Homo sapiens, UniProt P12931)"}, "[2]": {"target": "Tyrosine-protein kinase Fyn (Homo sapiens, UniProt P06241)"}, "[3]": {"target": "Tyrosine-protein kinase Lck (Homo sapiens, UniProt P06239)"}, "[4]": {"target": "Vascular endothelial growth factor receptor 3 (Homo sapiens, UniProt P35916)", "sequence (P35916 whole entry)": "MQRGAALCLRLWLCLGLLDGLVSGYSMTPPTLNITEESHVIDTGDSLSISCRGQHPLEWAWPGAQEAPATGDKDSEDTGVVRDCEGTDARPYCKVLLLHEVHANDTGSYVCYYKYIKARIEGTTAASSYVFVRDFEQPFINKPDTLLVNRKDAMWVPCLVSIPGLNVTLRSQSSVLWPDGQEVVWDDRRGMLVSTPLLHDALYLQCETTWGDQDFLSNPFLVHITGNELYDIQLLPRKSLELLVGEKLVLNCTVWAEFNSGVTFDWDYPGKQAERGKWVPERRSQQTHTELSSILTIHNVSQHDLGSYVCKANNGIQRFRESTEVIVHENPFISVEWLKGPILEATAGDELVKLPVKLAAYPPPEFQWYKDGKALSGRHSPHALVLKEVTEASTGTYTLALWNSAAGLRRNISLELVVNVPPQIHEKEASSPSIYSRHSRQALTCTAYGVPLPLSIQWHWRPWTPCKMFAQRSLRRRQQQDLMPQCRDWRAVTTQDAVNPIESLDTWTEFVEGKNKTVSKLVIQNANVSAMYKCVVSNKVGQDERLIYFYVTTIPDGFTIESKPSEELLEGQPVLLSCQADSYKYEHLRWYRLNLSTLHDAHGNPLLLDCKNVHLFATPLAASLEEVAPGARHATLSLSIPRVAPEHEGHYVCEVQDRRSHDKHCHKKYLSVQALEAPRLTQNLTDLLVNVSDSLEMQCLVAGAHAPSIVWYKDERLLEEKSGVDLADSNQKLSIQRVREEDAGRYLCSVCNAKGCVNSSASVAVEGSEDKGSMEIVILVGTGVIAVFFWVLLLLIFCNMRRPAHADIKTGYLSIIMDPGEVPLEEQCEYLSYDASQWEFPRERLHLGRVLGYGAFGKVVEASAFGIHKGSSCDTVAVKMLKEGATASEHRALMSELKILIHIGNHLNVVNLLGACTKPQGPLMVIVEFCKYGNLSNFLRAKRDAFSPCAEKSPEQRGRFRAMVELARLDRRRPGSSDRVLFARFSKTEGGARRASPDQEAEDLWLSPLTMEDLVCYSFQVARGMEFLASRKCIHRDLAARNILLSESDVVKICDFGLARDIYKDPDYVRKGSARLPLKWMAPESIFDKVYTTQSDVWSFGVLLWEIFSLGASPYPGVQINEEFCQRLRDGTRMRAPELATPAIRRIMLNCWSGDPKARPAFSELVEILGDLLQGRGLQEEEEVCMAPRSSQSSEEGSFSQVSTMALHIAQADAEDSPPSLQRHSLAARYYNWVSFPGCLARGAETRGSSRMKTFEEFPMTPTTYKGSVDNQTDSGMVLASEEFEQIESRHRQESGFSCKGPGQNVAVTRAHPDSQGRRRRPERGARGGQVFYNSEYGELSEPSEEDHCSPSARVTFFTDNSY"}, "[5]": {"target": "Receptor-type tyrosine-protein kinase FLT3 (Homo sapiens, UniProt P36888)"}, "[6]": {"target": "Tyrosine-protein kinase Blk (Homo sapiens, UniProt P51451)", "sequence (P51451 whole entry)": "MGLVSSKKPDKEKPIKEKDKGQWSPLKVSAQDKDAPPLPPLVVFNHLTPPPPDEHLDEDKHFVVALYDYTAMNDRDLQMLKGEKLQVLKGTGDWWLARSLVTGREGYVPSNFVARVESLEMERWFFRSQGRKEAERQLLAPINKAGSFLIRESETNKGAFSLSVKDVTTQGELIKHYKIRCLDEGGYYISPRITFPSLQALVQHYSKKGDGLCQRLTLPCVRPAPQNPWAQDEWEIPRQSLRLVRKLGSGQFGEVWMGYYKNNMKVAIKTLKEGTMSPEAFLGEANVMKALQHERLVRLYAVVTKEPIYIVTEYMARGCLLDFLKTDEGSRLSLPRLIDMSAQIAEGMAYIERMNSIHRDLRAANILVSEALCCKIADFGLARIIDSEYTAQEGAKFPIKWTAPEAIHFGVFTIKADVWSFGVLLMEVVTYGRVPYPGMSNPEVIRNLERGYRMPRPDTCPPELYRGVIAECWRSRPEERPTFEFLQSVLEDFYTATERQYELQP"}, "[7]": {"target": "Vascular endothelial growth factor receptor 2 (Homo sapiens, UniProt P35968)"}, "[8]": {"target": "Macrophage colony-stimulating factor 1 receptor (Homo sapiens, UniProt P07333)"}, "[9]": {"target": "Tyrosine-protein kinase Lyn (Homo sapiens, UniProt P07948)"}, "[10]": {"target": "Vascular endothelial growth factor receptor 1 (Homo sapiens, UniProt P17948)"}, "[11]": {"target": "Mast/stem cell growth factor receptor Kit (Homo sapiens, UniProt P10721)", "sequence (P10721 whole entry)": "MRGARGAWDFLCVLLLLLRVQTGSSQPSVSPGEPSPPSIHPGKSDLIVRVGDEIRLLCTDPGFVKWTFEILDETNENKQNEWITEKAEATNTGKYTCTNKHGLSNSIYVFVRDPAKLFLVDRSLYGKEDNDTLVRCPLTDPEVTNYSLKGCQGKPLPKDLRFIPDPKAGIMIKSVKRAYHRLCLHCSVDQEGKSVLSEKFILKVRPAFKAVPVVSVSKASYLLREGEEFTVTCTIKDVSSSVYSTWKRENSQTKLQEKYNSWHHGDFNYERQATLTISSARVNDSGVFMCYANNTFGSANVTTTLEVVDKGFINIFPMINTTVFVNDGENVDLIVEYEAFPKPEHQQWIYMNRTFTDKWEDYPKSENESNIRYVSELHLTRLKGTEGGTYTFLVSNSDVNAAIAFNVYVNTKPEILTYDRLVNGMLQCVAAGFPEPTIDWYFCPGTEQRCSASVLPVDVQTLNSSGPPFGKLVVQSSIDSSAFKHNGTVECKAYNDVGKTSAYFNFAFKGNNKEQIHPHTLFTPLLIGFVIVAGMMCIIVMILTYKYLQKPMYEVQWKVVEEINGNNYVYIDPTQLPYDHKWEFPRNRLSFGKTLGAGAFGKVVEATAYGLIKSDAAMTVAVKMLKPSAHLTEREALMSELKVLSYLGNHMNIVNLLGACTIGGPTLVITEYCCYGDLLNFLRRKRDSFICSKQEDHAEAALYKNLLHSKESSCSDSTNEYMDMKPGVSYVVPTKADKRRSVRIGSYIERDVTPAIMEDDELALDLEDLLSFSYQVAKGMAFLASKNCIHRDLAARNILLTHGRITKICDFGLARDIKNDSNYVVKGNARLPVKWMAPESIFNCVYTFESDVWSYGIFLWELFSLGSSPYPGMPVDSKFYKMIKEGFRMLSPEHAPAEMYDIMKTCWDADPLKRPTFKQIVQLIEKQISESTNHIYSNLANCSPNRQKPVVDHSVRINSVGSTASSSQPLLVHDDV"}, "[12]": {"target": "Tyrosine-protein kinase ABL1 (Homo sapiens, UniProt P00519)"}, "[13]": {"target": "Melanin-concentrating hormone receptor 1 (Homo sapiens, UniProt Q99705)", "test": "Late-stage fluorescence-based counterscreen for antagonists of the G-protein coupled receptor 7 (GPR7): cell-based dose response assay to identify antagonists of the melanin-concentrating hormone receptor 1 (MCHR1) Set 5."}, "[14]": {"target": "T1, Neuropeptides B/W receptor type 1 (Homo sapiens, UniProt P48145)", "T1 sequence (P48145 whole entry)": "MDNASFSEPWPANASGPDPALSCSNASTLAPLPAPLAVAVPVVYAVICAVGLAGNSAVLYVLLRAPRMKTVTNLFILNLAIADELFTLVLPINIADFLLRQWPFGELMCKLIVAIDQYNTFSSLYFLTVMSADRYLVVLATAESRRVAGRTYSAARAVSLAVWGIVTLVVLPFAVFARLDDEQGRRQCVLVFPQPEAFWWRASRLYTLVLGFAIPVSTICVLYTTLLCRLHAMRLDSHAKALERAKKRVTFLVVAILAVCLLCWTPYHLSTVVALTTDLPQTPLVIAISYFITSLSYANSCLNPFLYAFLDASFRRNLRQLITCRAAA", "test": "human NPBW1 receptor blockade, IC50 – cell-based, fluorescence, dose response, set 5, late-stage follow-up (AID 588566)"}, "[15]": {"target": "Dual specificity tyrosine-phosphorylation-regulated kinase 1B (Homo sapiens, UniProt Q9Y463)", "test": "Navigating the Kinome. Panel member name: DYRK1B"}, "[16]": {"target": "Casein kinase I isoform alpha (Homo sapiens, UniProt P48729)"}, "[17]": {"target": "Rho-associated protein kinase 1 (Homo sapiens, UniProt Q13464)"}, "[18]": {"target": "LIM domain kinase 1 (Homo sapiens, UniProt P53667)", "sequence (P53667 whole entry, the tested form may be a part)": "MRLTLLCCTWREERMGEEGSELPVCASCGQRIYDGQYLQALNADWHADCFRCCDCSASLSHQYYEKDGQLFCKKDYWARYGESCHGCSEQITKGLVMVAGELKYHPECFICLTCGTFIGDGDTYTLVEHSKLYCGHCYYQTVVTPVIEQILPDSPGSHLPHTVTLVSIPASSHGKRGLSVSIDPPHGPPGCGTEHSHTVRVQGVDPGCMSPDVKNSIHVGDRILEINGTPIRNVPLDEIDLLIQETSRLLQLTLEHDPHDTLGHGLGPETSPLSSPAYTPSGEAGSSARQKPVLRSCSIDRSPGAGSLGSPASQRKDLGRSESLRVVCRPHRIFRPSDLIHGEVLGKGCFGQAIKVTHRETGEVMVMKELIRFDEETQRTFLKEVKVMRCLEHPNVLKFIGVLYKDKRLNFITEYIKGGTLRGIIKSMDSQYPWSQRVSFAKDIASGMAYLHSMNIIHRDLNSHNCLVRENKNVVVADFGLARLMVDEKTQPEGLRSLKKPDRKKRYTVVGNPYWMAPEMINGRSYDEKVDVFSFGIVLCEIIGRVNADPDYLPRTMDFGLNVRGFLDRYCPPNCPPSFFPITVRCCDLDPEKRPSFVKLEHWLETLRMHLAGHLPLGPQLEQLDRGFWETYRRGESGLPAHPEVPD", "test": "Navigating the Kinome. Panel member name: LIMK1"}, "[19]": {"target": "Death-associated protein kinase 3 (Homo sapiens, UniProt O43293)"}, "[20]": {"target": "Activated CDC42 kinase 1 (Homo sapiens, UniProt Q07912)", "test": "Navigating the Kinome. Panel member name: ACK1"}, "[21]": {"target": "Dual specificity protein kinase CLK4 (Homo sapiens, UniProt Q9HAZ1)"}, "[22]": {"test": "THP-1 cell cytotoxicity, cytotoxicity control, set 4 (AID 504911)", "conditions": "Mycobacterium tuberculosis"}, "[23]": {"test": "A Cell Based Secondary Assay to Explore Cytotoxicity in THP-1 Cells of Compounds that Modulate Mycobacterium tuberculosis in Media Containing Glycerol versus Media without Glycerol (2)."}, "[24]": {"test": "HepG2 cell cytotoxicity, dose response, cytotoxicity control, set 3 (AID 504853)", "conditions": "Mycobacterium tuberculosis"}, "[25]": {"test": "Vero cell cytotoxicity, dose response, cytotoxicity control for M. tuberculosis growth inhibitor project, Vero cells, purified and synthesized compounds, set 4 (AID 504854)", "conditions": "Mycobacterium tuberculosis"}, "[26]": {"test": "HepG2 cell cytotoxicity, cytotoxicity control, set 4 (AID 504910)", "conditions": "Mycobacterium tuberculosis"}, "[27]": {"test": "Vero cell cytotoxicity, cytotoxicity control for M. tuberculosis inhibitor project, purified and synthesized samples, set 3 (AID 504684)", "conditions": "[…]"}, "[28]": {"test": "THP-1 cell cytotoxicity, dose response, cytotoxicity control, set 3 (AID 504852)", "conditions": "Mycobacterium tuberculosis"}, "[29]": {"test": "A Cell Based Secondary Assay to Explore Cytotoxicity in HepG2 Cells of Compounds that Modulate Mycobacterium tuberculosis in Media Containing Glycerol versus Media without Glycerol (2)."}, "[30]": {"test": "microbe, parasite or virus in culture", "conditions": "Mycobacterium tuberculosis"}, "[31]": {"test": "Vero cell cytotoxicity, dose response, cytotoxicity control for M. tuberculosis growth inhibitor project, Vero cells, purified and synthesized compounds, set 5 (AID 504909)", "conditions": "Mycobacterium tuberculosis"}, "[32]": {"target": "Protein kinase C gamma type (Homo sapiens, UniProt P05129)"}, "[33]": {"target": "Protein kinase C zeta type (Homo sapiens, UniProt Q05513)", "sequence (Q05513 whole entry)": "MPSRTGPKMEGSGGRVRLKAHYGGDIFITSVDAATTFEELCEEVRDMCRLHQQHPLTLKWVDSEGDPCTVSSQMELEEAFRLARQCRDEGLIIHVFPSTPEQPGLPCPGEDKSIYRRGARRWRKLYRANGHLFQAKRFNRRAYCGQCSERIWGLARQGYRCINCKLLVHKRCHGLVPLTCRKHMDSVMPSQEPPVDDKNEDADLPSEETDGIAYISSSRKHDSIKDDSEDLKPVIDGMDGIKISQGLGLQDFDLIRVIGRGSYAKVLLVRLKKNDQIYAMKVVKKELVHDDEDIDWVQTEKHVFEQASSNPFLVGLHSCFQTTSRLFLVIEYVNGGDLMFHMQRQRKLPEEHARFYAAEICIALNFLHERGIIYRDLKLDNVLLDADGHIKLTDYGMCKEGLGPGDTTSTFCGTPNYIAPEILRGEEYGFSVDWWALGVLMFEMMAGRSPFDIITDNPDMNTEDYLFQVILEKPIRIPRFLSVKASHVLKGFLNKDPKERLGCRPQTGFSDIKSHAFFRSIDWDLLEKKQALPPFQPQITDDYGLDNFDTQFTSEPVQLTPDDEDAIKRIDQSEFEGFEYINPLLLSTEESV"}, "[34]": {"target": "Serine/threonine-protein kinase MRCK alpha (Homo sapiens, UniProt Q5VT25)"}, "[35]": {"target": "Serine/threonine-protein kinase pim-1 (Homo sapiens, UniProt P11309)", "sequence (P11309 whole entry)": "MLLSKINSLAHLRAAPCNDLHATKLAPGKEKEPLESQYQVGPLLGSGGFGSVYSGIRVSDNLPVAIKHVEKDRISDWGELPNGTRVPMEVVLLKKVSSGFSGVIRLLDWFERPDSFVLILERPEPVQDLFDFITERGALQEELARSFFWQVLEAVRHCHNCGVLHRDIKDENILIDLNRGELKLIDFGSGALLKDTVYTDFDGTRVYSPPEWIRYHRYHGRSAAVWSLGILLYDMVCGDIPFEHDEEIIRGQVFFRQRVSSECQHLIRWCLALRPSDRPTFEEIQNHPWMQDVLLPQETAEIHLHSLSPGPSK"}, "[36]": {"target": "Calcium/calmodulin-dependent protein kinase type 1 (Homo sapiens, UniProt Q14012)", "sequence (Q14012 whole entry)": "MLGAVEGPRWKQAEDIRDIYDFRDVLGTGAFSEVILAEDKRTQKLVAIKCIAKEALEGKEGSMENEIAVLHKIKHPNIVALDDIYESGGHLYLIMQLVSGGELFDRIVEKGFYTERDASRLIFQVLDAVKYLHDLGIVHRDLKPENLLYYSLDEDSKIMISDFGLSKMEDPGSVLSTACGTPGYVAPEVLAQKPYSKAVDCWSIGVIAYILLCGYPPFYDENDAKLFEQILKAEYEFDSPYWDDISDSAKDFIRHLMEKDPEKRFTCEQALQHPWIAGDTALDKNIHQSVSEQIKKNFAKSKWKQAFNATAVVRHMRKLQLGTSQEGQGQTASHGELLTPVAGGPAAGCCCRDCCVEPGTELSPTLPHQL"}, "[37]": {"target": "Protein kinase C delta type (Homo sapiens, UniProt Q05655)"}, "[38]": {"target": "Serine/threonine-protein kinase PAK 1 (Homo sapiens, UniProt Q13153)"}}, "note": "The source made the active and inactive calls.", "data": [{"smiles": "Cc1ccc(F)c(NC(=O)Nc2ccc(-c3cccc4[nH]nc(N)c34)c(F)c2)c1", "values": [{"measurement": "Ki", "setting": "[1]", "result": "0.501 µM (active)"}, {"measurement": "Ki", "setting": "[2]", "result": "0.158 µM (active)"}, {"measurement": "Ki", "setting": "[3]", "result": "0.501 µM (active)"}, {"measurement": "Ki", "setting": "[4]", "result": "0.00398 µM (active)"}, {"measurement": "Ki", "setting": "[5]", "result": "0.00316 µM (active)"}, {"measurement": "Ki", "setting": "[6]", "result": "0.251 µM (active)"}, {"measurement": "Ki", "setting": "[7]", "result": "0.0126 µM (active)"}, {"measurement": "Ki", "setting": "[8]", "result": "0.00316 µM (active)"}, {"measurement": "Ki", "setting": "[9]", "result": "0.316 µM (active)"}, {"measurement": "Ki", "setting": "[10]", "result": "0.001 µM (active)"}, {"measurement": "Ki", "setting": "[11]", "result": "0.002 µM (active)"}, {"measurement": "Ki", "setting": "[12]", "result": "> 0.631 µM (inactive)"}]}, {"smiles": "O=c1c(Oc2ccc(Cl)c(Cl)c2)c(Cl)cnn1Cc1cccc2ccccc12", "values": [{"measurement": "IC50", "setting": "[13]", "result": "> 20 µM (inactive)"}, {"measurement": "IC50", "setting": "[14]", "result": "> 20 µM (inactive)"}]}, {"smiles": "Cn1c(N)nc2sc(C(N)=O)cc21", "values": [{"measurement": "Ki", "setting": "[15]", "result": "79.4 µM (active)"}, {"measurement": "Ki", "setting": "[16]", "result": "12.6 µM (active)"}, {"measurement": "Ki", "setting": "[17]", "result": "39.8 µM (active)"}, {"measurement": "Ki", "setting": "[18]", "result": "79.4 µM (active)"}, {"measurement": "Ki", "setting": "[19]", "result": "10 µM (active)"}, {"measurement": "Ki", "setting": "[20]", "result": "79.4 µM (active)"}, {"measurement": "Ki", "setting": "[21]", "result": "25.1 µM (active)"}]}, {"smiles": "CCOc1ccc(-c2cc(C)[n+](CCc3ccc(OC)c(OC)c3)c(-c3ccc(OCC)cc3)c2)cc1.[O-][Cl+3]([O-])([O-])[O-]", "values": [{"measurement": "CC50", "setting": "[22]", "result": "1.3 µM (active)"}, {"measurement": "CC50", "setting": "[23]", "result": "2.28 µM (active)"}, {"measurement": "CC50", "setting": "[24]", "result": "13.1 µM (active)"}, {"measurement": "CC50", "setting": "[25]", "result": "21 µM (active)"}, {"measurement": "CC50", "setting": "[26]", "result": "11.9 µM (active)"}, {"measurement": "CC50", "setting": "[27]", "result": "18.2 µM (active)"}, {"measurement": "CC50", "setting": "[28]", "result": "1.7 µM (active)"}, {"measurement": "CC50", "setting": "[29]", "result": "9.14 µM (active)"}, {"measurement": "CC50", "setting": "[30]", "result": "> 40 µM (active)"}, {"measurement": "CC50", "setting": "[31]", "result": "19.7 µM (active)"}]}, {"smiles": "CC(C)c1ccc2c(c1)c(SC(C)(C)C)c(CC(C)(C)CNCCCO)n2Cc1ccc(Cl)cc1", "values": [{"measurement": "Ki", "setting": "[32]", "result": "3.98 µM (active)"}, {"measurement": "Ki", "setting": "[33]", "result": "7.94 µM (active)"}, {"measurement": "Ki", "setting": "[34]", "result": "6.31 µM (active)"}, {"measurement": "Ki", "setting": "[35]", "result": "5.01 µM (active)"}, {"measurement": "Ki", "setting": "[36]", "result": "7.94 µM (active)"}, {"measurement": "Ki", "setting": "[37]", "result": "2.51 µM (active)"}, {"measurement": "Ki", "setting": "[38]", "result": "2 µM (active)"}]}]}
